Earlier results in PMC6376154 (International Journal for Parasitology: Drugs and Drug …, 2019).
Read-outs that look alike come from different tables or passages of the source.

System: P. falciparum 3D7 asexual blood stage
Conditions: cited from earlier work
[1] = MMV Malaria Box data sheet, ref MMV data sheets
[2] = MMV Malaria Box data sheet, ref MMV data sheets, read-out: EC50_nM
[3] = source GNF, ref ChEMBL_NTD, read-out: CHEMBL EC50
[4] = source GSK, ref ChEMBL_NTD, read-out: CHEMBL EC50
[5] = MMV Malaria Box sheet, ref MMV data sheets
[6] = MMV Malaria Box sheet, ref MMV data sheets, read-out: EC50_nM
[7] = MMV Malaria Box data sheet (supplement mmc2.xls), ref MMV data sheet
[8] = MMV Malaria Box data sheet (supplement mmc2.xls), ref MMV data sheet, read-out: EC50_nM
[9] = value(s) per source (GSK, GNF, StJude), separated by semicolon, ref ChEMBL-NTD, read-out: CHEMBL EC50
[10] = source StJude, ref ChEMBL_NTD, read-out: CHEMBL EC50
[11] = ChEMBL-NTD value per source (GNF, GSK, StJude), several values in a cell follow the order of the sources, read-out: CHEMBL EC50

CC(C)(C)c1ccc(O)c(CNC2CCCCC2)c1 [MMV665785]
percent_inh @ 5 uM [1]: 96%
EC50 [2]: 161 nM
EC50 [3]: 250 nM
EC50 [4]: 264 nM

O=c1cc(NC2CCN(CCCc3ccccc3)CC2)c2cc(Cl)ccc2o1 [MMV665786]
percent_inh @ 5 uM [5]: 97%
EC50 [6]: 846 nM
EC50 [3]: 408 nM

CC(NCc1ccccc1)c1cc(Cl)ccc1O (stereo not drawn) [MMV665789]
percent_inh @ 5 uM [7]: 95%
EC50 [8]: 603 nM
EC50 [9]: 592 nM

FC(F)(F)c1cccc(Nc2nc3ccccc3nc2Nc2cccc(C(F)(F)F)c2)c1 [MMV665794]
percent_inh @ 5 uM [5]: 99%
EC50 [6]: 313 nM
EC50 [4]: 137 nM

CCOc1cc(Br)c(C(C)NC(=O)c2cccc(OC)c2)cc1OCC (stereo not drawn) [MMV665796]
percent_inh @ 5 uM [7]: 96%
EC50 [8]: 1430 nM
EC50 [9]: 168 nM

CCCCOC(=O)c1ccc(Nc2cc(C)nc3ccc(OC)cc23)cc1 [MMV665797]
percent_inh @ 5 uM [5]: 99%
EC50 [6]: 584 nM
EC50 [4]: 640 nM

FC(F)(F)c1cccc(Nc2nc(-c3ccccc3)nc3ncccc23)c1 [MMV665798]
percent_inh @ 5 uM [7]: 74%
EC50 [9]: 802 nM

COc1ccc(C(=O)Nc2ccc(Cl)cc2C(=O)Nc2ccncc2)cc1 [MMV665799]
percent_inh @ 5 uM [7]: 93%
EC50 [9]: 822 nM

CCOc1cc(Cl)c(C(C)NC(=O)c2cccc(OC)c2)cc1OCC (stereo not drawn) [MMV665803]
percent_inh @ 5 uM [7]: 98%
EC50 [8]: 728 nM
EC50 [9]: 956 nM

CCOc1ccc(-c2nonc2NC(=O)c2cccc(C)c2)cc1OCC [MMV665805]
percent_inh @ 5 uM [1]: 86%
EC50 [2]: 117 nM
EC50 [10]: 61.9 nM

Cc1c(C)n(CC(O)CNC2CCCCC2C)c2ccccc12 (stereo not drawn) [MMV665806]
percent_inh @ 5 uM [5]: 96%
EC50 [6]: 769 nM
EC50 [10]: 527 nM

O=C(Nc1cccc(C(F)(F)F)c1)c1cc(Cl)ccc1O [MMV665807]
percent_inh @ 5 uM [7]: 93%
EC50 [9]: 973 nM

Oc1ccc(Br)cc1CN1CCN(Cc2ccc(Cl)cc2)CC1 [MMV665809]
EC50 [11]: 1480 nM

CCc1ccc(CNCC(O)c2ccccc2)cc1 (stereo not drawn) [MMV665812]
EC50 [11]: 2170 nM

CCOC(=O)c1cnc2ccc(OC)cc2c1NCc1ccccc1 [MMV665813]
EC50 [11]: 2770 nM

CC(C)(C)CC(C)(C)NCC(O)COc1ccc2c(c1)CCC2 (stereo not drawn) [MMV665817]
percent_inh @ 5 uM [1]: 78%
EC50 [10]: 4420 nM

Cn1c(C(=O)c2cccc3ccccc23)nc2ccccc21 [MMV665824]
EC50 [11]: 6.92 nM

COc1cccc(NC(=O)Cn2c(C)c(C#N)c3ccccc32)c1 [MMV665826]
percent_inh @ 5 uM [7]: 95%
EC50 [8]: 1090 nM

CCOC(=O)c1cn(CC)c2cc(N3CCCCC3)c(F)cc2c1=O [MMV665827]
percent_inh @ 5 uM [1]: 100%
EC50 [2]: 119 nM
EC50 [3]: 166 nM
EC50 [4]: 125 nM

CC1CC2=C(CC1CNCCCN(C)C)C(C)(C)CCC2 (stereo not drawn) [MMV665830]
EC50 [11]: 250 nM

CCOC(=O)c1c(NC(=O)c2ccccc2)sc2c(O)c(CN(CC)CC)ccc12 [MMV665831]
percent_inh @ 5 uM [1]: 96%
EC50 [2]: 205 nM
EC50 [3]: 267 nM
EC50 [4]: 969 nM

O=C(Nc1ccc(-c2nc3ccccc3[nH]2)cc1)c1ccc(Cl)c(Cl)c1 [MMV665840]
EC50 [11]: 523 nM

Oc1c2c(nc3ccccc13)CCCC2 [MMV665843]
percent_inh @ 5 uM [5]: 82%
EC50 [3]: 628 nM

Oc1ccc(Cl)cc1CNc1nc2ccccc2[nH]1 [MMV665850]
percent_inh @ 5 uM [1]: 95%
EC50 [3]: 921 nM

O=C(Nc1ccc(Cl)c(Cl)c1)Nc1ccc(Cl)c(Cl)c1 [MMV665852]
EC50 [11]: 1030 nM

CCOc1c(Cl)cc(CNC(C)C(O)c2ccccc2)cc1OC (stereo not drawn) [MMV665857]
percent_inh @ 5 uM [7]: 98%
EC50 [9]: 1650 nM

CCCCNc1nc(NC(C)(C)C)nc(NC(C)(C)C)n1 [MMV665864]
EC50 [11]: 2160 nM

Cc1cc(Nc2ccc(C)c(Cl)c2)n2nc(C(F)(F)F)nc2n1 [MMV665874]
percent_inh @ 5 uM [1]: 98%
EC50 [2]: 6.71 nM
EC50 [4]: 15.8 nM

Cn1c(=O)n(C)c2cc(CNCCNc3ccnc4cc(Cl)ccc34)ccc21 [MMV665875]
EC50 [11]: 140 nM

CCC(c1ccccc1)c1nn2c(-c3cccs3)nnc2s1 (stereo not drawn) [MMV665876]
percent_inh @ 5 uM [1]: 99%
EC50 [2]: 259 nM
EC50 [4]: 167 nM

COc1cccc(NC(=O)[C@H](C(C)C)n2c(=O)[nH]c3ccccc3c2=O)c1 [MMV665878]
percent_inh @ 5 uM [1]: 99%
EC50 [2]: 139 nM
EC50 [4]: 266 nM

CC(C)(C)C(=O)Nc1ccc(C(=O)Nc2cccc(-c3nc4ccccc4[nH]3)c2)cc1 [MMV665879]
percent_inh @ 5 uM [7]: 91%
EC50 [9]: 282 nM

COc1ccc(CNC(=O)c2cc3c(=O)n4ccccc4nc3n(CCc3ccccc3)c2=N)cc1 [MMV665881]
EC50 [11]: 330 nM

OC(CNC1CCCCC1)Cn1c2ccc(I)cc2c2cc(I)ccc21 (stereo not drawn) [MMV665882]
EC50 [11]: 337 nM

O=C(Nc1cccc(-c2nc3ccccc3[nH]2)c1)c1cccc(NC(=O)c2ccco2)c1 [MMV665883]
percent_inh @ 5 uM [5]: 95%
EC50 [6]: 745 nM
EC50 [4]: 360 nM

CC(Oc1ccc(NC(=O)c2cccs2)cc1)C(=O)c1ccc(Cl)cc1 (stereo not drawn) [MMV665886]
EC50 [11]: 774 nM

O=C(Nc1ccccc1O)c1ccc(Oc2cccc(C(=O)Nc3ccccc3O)c2)cc1 [MMV665888]
percent_inh @ 5 uM [7]: 91%
EC50 [9]: 799 nM

COc1ccc(-c2nonc2NC(=O)c2cccc(C)c2)cc1OC [MMV665890]
percent_inh @ 5 uM [7]: 95%
EC50 [9]: 806 nM

c1ccc(-c2ccc(-c3nc4ccccc4[nH]3)cc2)cc1 [MMV665891]
percent_inh @ 5 uM [7]: 52%
EC50 [8]: 1070 nM
EC50 [9]: 809 nM

CC(=O)c1sc(NC(=O)Nc2ccc(C)cc2C)nc1C [MMV665894]
EC50 [11]: 906 nM

COc1ccc2nc(N)nc(C)c2c1 [MMV665897]
percent_inh @ 5 uM [5]: 63%
EC50 [4]: 927 nM

COc1cc(C(=O)Nc2ccc(-c3nc4ccccc4[nH]3)cc2)cc(OC)c1OC [MMV665898]
EC50 [11]: 982 nM

O=C(c1ccccc1F)N(Cc1ccc(Cl)cc1)c1ccccn1 [MMV665899]
percent_inh @ 5 uM [7]: 59%
EC50 [9]: 1020 nM

O=C(Nc1ccc(CN2CCOCC2)cc1)c1ccc(-c2ccc(Br)cc2)o1 [MMV665901]
percent_inh @ 5 uM [7]: 96%
EC50 [8]: 1360 nM
EC50 [9]: 1120 nM

N=c1n(CCN2CCCCC2)c2ccccc2n1CC(O)c1cccc(Br)c1 (stereo not drawn) [MMV665902]
percent_inh @ 5 uM [7]: 98%
EC50 [8]: 893 nM
EC50 [9]: 1140 nM

COCCn1c(C)nc2ccccc2c1=O [MMV665904]
percent_inh @ 5 uM [5]: 59%
EC50 [4]: 1460 nM

Cc1ccc(-c2cc(C(=O)Nc3ccc(S(=O)(=O)N4CCCCC4)cc3)[nH]n2)c(O)c1 [MMV665906]
percent_inh @ 5 uM [7]: 94%
EC50 [8]: 535 nM
EC50 [9]: 1770 nM

COc1ccc(N2CCN(C(CNC(=O)CC(C)(C)C)c3ccc4c(c3)OCO4)CC2)cc1 (stereo not drawn) [MMV665908]
percent_inh @ 5 uM [5]: 95%
EC50 [10]: 4280 nM

O=C(Nc1nc(-c2ccccn2)cs1)c1ccccc1Br [MMV665909]
percent_inh @ 5 uM [1]: 97%
EC50 [2]: 1360 nM
EC50 [10]: 4530 nM

CCOc1ccc(-c2nc(NC(=O)c3cccc(S(C)(=O)=O)c3)sc2C)cc1 [MMV665913]
percent_inh @ 5 uM [7]: 95%
EC50 [9]: 15000 nM

COc1ccccc1N1CCN(C(CNS(=O)(=O)c2ccc(Cl)cc2)c2cccnc2)CC1 (stereo not drawn) [MMV665914]
percent_inh @ 5 uM [7]: 93%
EC50 [9]: 15000 nM

COc1ccc(-c2nc(NC(=O)CS(=O)(=O)c3ccc(F)cc3)sc2C)cc1 [MMV665915]
percent_inh @ 5 uM [1]: 97%
EC50 [2]: 448 nM
EC50 [3]: 212 nM
EC50 [4]: 243 nM

COc1ccccc1CNC(=O)CCn1c(=O)[nH]c2ccccc2c1=O [MMV665916]
percent_inh @ 5 uM [1]: 64%
EC50 [2]: 72.6 nM
EC50 [3]: 537 nM

O=C(Nc1ccc(Cl)cc1)N1CCN(c2ccc3nncn3n2)CC1 [MMV665917]
percent_inh @ 5 uM [1]: 62%
EC50 [3]: 2060 nM

O=C(CSc1ccc2nnc(-c3cccc(F)c3)n2n1)Nc1ccc2c(c1)OCO2 [MMV665918]
percent_inh @ 5 uM [7]: 92%
EC50 [9]: 2110 nM

N=c1c2ccccc2nnn1-c1cccc(C(F)(F)F)c1 [MMV665923]
EC50 [11]: 134 nM
